In patent US11873287B2, “Piperidine-2,6-dione derivatives and ulcerative colitis treating” (TIANJIN HEMAY PHARMACEUTICAL SCI-TECH CO., LTD, priority 2016, dated 2024):
Values joined by “and” are separate entries in the source; they are usually repeats but may differ in a detail not shown here. Equal values may be shown once.

Legend:
ICR mice = assay: Acute toxicity experiment of single oral administration in mice; assay type: in vivo
Procedure: The mice were fasted one day before the experiment. On the day of the experiment, 6 mice (ICR mice, body weight of 19-21 g, three females and three males) were selected in each experiment group. First of all, one female and one male were selected to orally give 1000 mg/Kg, and observed for 5-10 minutes. If there were no obvious side effects, the remaining 4 animals were orally given the same dose, and observed for 10-15 minutes. If no animal died, the animals were placed in a box to balancedly feed for 7 days. The state was observed and the body weight was recorded daily.
Observation Indexes within 0-15 Minutes After Administration
Activity: restlessness, hyperactivity
Nervous system response: tremor, spasm, convulsion, ataxia, posture abnormality, etc.
Autonomic nerve: exophthalmos, salivation, tears, urination (hematuria), diarrhea, piloerection, breathing, etc.
Observation Indexes Over 7 Days
State of Animal: lethargy, hyperactivity, excitement, hair loss, diarrhea, abnormal behavior, death, etc.

[1] = test system: DSS-Induced inflammatory Bowel Disease Models in Mice; assay: DSS-induced inflammatory bowel disease model in mice (Biological Example 4, 1.3% DSS); assay type: in vivo, C57BL/6 mice; details: 30 mg/Kg i.g. Q.D
Procedure: 40 healthy female C57BL/6 mice having weight of 16-19 g were randomly divided into 4 groups in accordance with weight. There were 10 mice in each group (see Table 6 below). The first day of the experiment was recorded as Day 0. The administration regimen and induction regimen were detailed in Table 6. The change in weight of experimental animals was recorded every day. […] Samples of animal colonic tissues were obtained to measure the length. One-way ANOVA analysis of mice weights was performed by SPSS22. Statistical analyses between groups were performed. Mann-Whitney U non-parametric test was performed on the length of colon.
The experimental method used in the present biological example is identical to those in Biological Example 3.
Calculation Formula of Inhibitory Rate of Colonic Reduction: (Length of Colon in Administration Group−Length of Colon in Model Group)/(Length of Colon in Blank Group−Length of Colon in Model Group)

[2] = Day 1, 1000 mg/Kg single oral dose
[3] = Day 2, 1000 mg/Kg single oral dose
[4] = Day 3, 1000 mg/Kg single oral dose
[5] = Day 4, 1000 mg/Kg single oral dose
[6] = Day 5, 1000 mg/Kg single oral dose
[7] = Day 6, 1000 mg/Kg single oral dose
[8] = Day 7, 1000 mg/Kg single oral dose
[9] = Day 1, 1000 mg/Kg single oral dose, 1000 mg/kg
[10] = Day 2, 1000 mg/Kg single oral dose, 1000 mg/kg
[11] = Day 3, 1000 mg/Kg single oral dose, 1000 mg/kg
[12] = Day 4, 1000 mg/Kg single oral dose, 1000 mg/kg
[13] = Day 5, 1000 mg/Kg single oral dose, 1000 mg/kg
[14] = Day 6, 1000 mg/Kg single oral dose, 1000 mg/kg
[15] = Day 7, 1000 mg/Kg single oral dose, 1000 mg/kg
[16] = Female, 1000 mg/Kg single oral dose
[17] = Male, 1000 mg/Kg single oral dose

COCCN1C(=O)CCC(N2C(=O)c3cccc(NC(C)=O)c3C2=O)C1=O (centres unmarked) [Example 1, 4-acetylamino-2-(1-(2-methoxyethyl)-2,6-dioxopiperidin-3-yl)isoindolin-1,3-dione]
Daily Body Weight of Tested Female Mice (Mean ± SD) (ICR mice; [2]): 18.5 ± 0.1 g | Daily Body Weight of Tested Male Mice (Mean ± SD) (ICR mice; [2]): 20.1 ± 1.4 g | Daily Body Weight of Tested Female Mice (Mean ± SD) (ICR mice; [3]): 22.8 ± 0.3 g | Daily Body Weight of Tested Male Mice (Mean ± SD) (ICR mice; [3]): 23.8 ± 1.4 g | Daily Body Weight of Tested Female Mice (Mean ± SD) (ICR mice; [4]): 23.2 ± 0.7 g | Daily Body Weight of Tested Male Mice (Mean ± SD) (ICR mice; [4]): 24.9 ± 1.0 g | Daily Body Weight of Tested Female Mice (Mean ± SD) (ICR mice; [5]): 24.0 ± 0.2 g | Daily Body Weight of Tested Male Mice (Mean ± SD) (ICR mice; [5]): 26.3 ± 1.2 g | Daily Body Weight of Tested Female Mice (Mean ± SD) (ICR mice; [6]): 25.3 ± 1.6 g | Daily Body Weight of Tested Male Mice (Mean ± SD) (ICR mice; [6]): 27.7 ± 1.3 g | Daily Body Weight of Tested Female Mice (Mean ± SD) (ICR mice; [7]): 25.7 ± 1.6 g | Daily Body Weight of Tested Male Mice (Mean ± SD) (ICR mice; [7]): 29.2 ± 1.4 g | Daily Body Weight of Tested Female Mice (Mean ± SD) (ICR mice; [8]): 27.1 ± 1.1 g | Daily Body Weight of Tested Male Mice (Mean ± SD) (ICR mice; [8]): 29.4 ± 1.4 g

COCCN1C(=O)CCC(N2C(=O)c3cccc(N(C)C)c3C2=O)C1=O (centres unmarked) [Example 3, 4-dimethylamino-2-(1-(2-methoxyethyl)-2,6-dioxopiperidin-3-yl)isoindolin-1,3-dione]
Daily Body Weight of Tested Female Mice (Mean ± SD) (ICR mice; [9]): 18.3 ± 0.4 g and 18.8 ± 0.4 g | Daily Body Weight of Tested Male Mice (Mean ± SD) (ICR mice; [9]): 18.8 ± 0.7 g and 18.0 ± 0.2 g | Daily Body Weight of Tested Female Mice (Mean ± SD) (ICR mice; [10]): 21.7 ± 0.2 g and 22.1 ± 1.2 g | Daily Body Weight of Tested Male Mice (Mean ± SD) (ICR mice; [10]): 23.3 ± 0.1 g and 22.9 ± 0.3 g | Daily Body Weight of Tested Female Mice (Mean ± SD) (ICR mice; [11]): 22.3 ± 0.2 g and 22.7 ± 0.8 g | Daily Body Weight of Tested Male Mice (Mean ± SD) (ICR mice; [11]): 24.3 ± 0.1 g and 24.3 ± 0.9 g | Daily Body Weight of Tested Female Mice (Mean ± SD) (ICR mice; [12]): 22.6 ± 0.8 g and 23.0 ± 1.4 g | Daily Body Weight of Tested Male Mice (Mean ± SD) (ICR mice; [12]): 25.6 ± 0.7 g and 25.2 ± 1.1 g | Daily Body Weight of Tested Female Mice (Mean ± SD) (ICR mice; [13]): 23.0 ± 1.4 g and 23.7 ± 1.9 g | Daily Body Weight of Tested Male Mice (Mean ± SD) (ICR mice; [13]): 26.9 ± 0.8 g and 27.0 ± 1.3 g | Daily Body Weight of Tested Female Mice (Mean ± SD) (ICR mice; [14]): 22.6 ± 1.3 g and 24.1 ± 1.2 g | Daily Body Weight of Tested Male Mice (Mean ± SD) (ICR mice; [14]): 27.9 ± 0.9 g and 28.2 ± 1.9 g | Daily Body Weight of Tested Female Mice (Mean ± SD) (ICR mice; [15]): 22.7 ± 0.4 g and 24.4 ± 1.8 g | Daily Body Weight of Tested Male Mice (Mean ± SD) (ICR mice; [15]): 28.6 ± 0.4 g and 28.5 ± 2.7 g | Summary of toxic response of tested animals in 7 Days (ICR mice; [16]): Abnormality was not observed in 7 days of the test | Summary of toxic response of tested animals in 7 Days (ICR mice; [17]): Abnormality was not observed in 7 days of the test

COCCN1C(=O)CCC(N2C(=O)c3ccc(F)c(N)c3C2=O)C1=O (centres unmarked) [Example 9, 4-amino-S-fluoro-2-(1-(2-methoxyethyl)-2,6-dioxopiperidin-3-yl)isoindolin-1,3-dione]
Summary of toxic response of tested animals in 7 Days (ICR mice; mouse, in vivo, po, 1000 mg/kg): Abnormality was not observed in 7 days of the test

COCCN1C(=O)CCC(N2C(=O)c3c(N)ccc(O)c3C2=O)C1=O (centres unmarked) [Example 10, 4-amino-7-hydroxy-2-(1-(2-methoxyethyl)-2,6-dioxopiperidin-3-yl)isoindolin-1,3-dione]
Daily Body Weight of Tested Female Mice (Mean ± SD) (ICR mice; [2]): 19.2 ± 0.5 g | Daily Body Weight of Tested Male Mice (Mean ± SD) (ICR mice; [2]): 19.4 ± 0.3 g | Daily Body Weight of Tested Female Mice (Mean ± SD) (ICR mice; [3]): 21.9 ± 0.4 g | Daily Body Weight of Tested Male Mice (Mean ± SD) (ICR mice; [3]): 24.4 ± 0.6 g | Daily Body Weight of Tested Female Mice (Mean ± SD) (ICR mice; [4]): 22.4 ± 0.2 g | Daily Body Weight of Tested Male Mice (Mean ± SD) (ICR mice; [4]): 25.5 ± 0.9 g | Daily Body Weight of Tested Female Mice (Mean ± SD) (ICR mice; [5]): 22.4 ± 0.2 g | Daily Body Weight of Tested Male Mice (Mean ± SD) (ICR mice; [5]): 25.5 ± 0.9 g | Daily Body Weight of Tested Female Mice (Mean ± SD) (ICR mice; [6]): 22.9 ± 0.6 g | Daily Body Weight of Tested Male Mice (Mean ± SD) (ICR mice; [6]): 26.8 ± 0.9 g | Daily Body Weight of Tested Female Mice (Mean ± SD) (ICR mice; [7]): 24.1 ± 1.5 g | Daily Body Weight of Tested Male Mice (Mean ± SD) (ICR mice; [7]): 29.2 ± 0.7 g | Daily Body Weight of Tested Female Mice (Mean ± SD) (ICR mice; [8]): 24.2 ± 1.8 g | Daily Body Weight of Tested Male Mice (Mean ± SD) (ICR mice; [8]): 30.3 ± 0.7 g | Summary of toxic response of tested animals in 7 Days (ICR mice; [16]): Decrease of activity was observed in all the animals within 30 | Summary of toxic response of tested animals in 7 Days (ICR mice; [17]): Decrease of activity was observed in all the animals within 30

CSCCN1C(=O)CCC(N2C(=O)c3cccc(N)c3C2=O)C1=O (centres unmarked) [Example 11, 4-amino-2-(1-(2-methylthioethyl)-2,6-dioxopiperidin-3-yl)isoindolin-1,3-dione]
Daily Body Weight of Tested Female Mice (Mean ± SD) (ICR mice; [2]): 18.1 ± 0.2 g | Daily Body Weight of Tested Male Mice (Mean ± SD) (ICR mice; [2]): 19.5 ± 0.6 g | Daily Body Weight of Tested Female Mice (Mean ± SD) (ICR mice; [3]): 21.7 ± 0.2 g | Daily Body Weight of Tested Male Mice (Mean ± SD) (ICR mice; [3]): 23.7 ± 0.8 g | Daily Body Weight of Tested Female Mice (Mean ± SD) (ICR mice; [4]): 22.4 ± 0.1 g | Daily Body Weight of Tested Male Mice (Mean ± SD) (ICR mice; [4]): 25.4 ± 0.4 g | Daily Body Weight of Tested Female Mice (Mean ± SD) (ICR mice; [5]): 22.4 ± 0.1 g | Daily Body Weight of Tested Male Mice (Mean ± SD) (ICR mice; [5]): 25.4 ± 0.4 g | Daily Body Weight of Tested Female Mice (Mean ± SD) (ICR mice; [6]): 23.5 ± 0.4 g | Daily Body Weight of Tested Male Mice (Mean ± SD) (ICR mice; [6]): 27.0 ± 0.5 g | Daily Body Weight of Tested Female Mice (Mean ± SD) (ICR mice; [7]): 23.2 ± 0.8 g | Daily Body Weight of Tested Male Mice (Mean ± SD) (ICR mice; [7]): 29.0 ± 0.7 g | Daily Body Weight of Tested Female Mice (Mean ± SD) (ICR mice; [8]): 23.2 ± 0.9 g | Daily Body Weight of Tested Male Mice (Mean ± SD) (ICR mice; [8]): 29.8 ± 1.0 g | Summary of toxic response of tested animals in 7 Days (ICR mice; [16]): Decrease of activity was observed in one animal after | Summary of toxic response of tested animals in 7 Days (ICR mice; [17]): Abnormality was not observed in 7 days of the test

COCCCN1C(=O)CCC(N2C(=O)c3cccc(NC(C)=O)c3C2=O)C1=O (centres unmarked) [Example 16, 4-acetylamino-2-(1-(3-methoxypropyl)-2,6-dioxopiperidin-3-yl)isoindolin-1,3-dione]
Average Length of Colon (Mean ± SD) ([1]; 1.3% DSS days 0-5): 7.0 ± 0.4 cm | Inhibitory Rate of Colonic Reduction ([1]; 1.3% DSS days 0-5): 73.3% | Weights of Experimental Mice (Mean ± SD) ([1]; Day 0): 19.8 ± 0.6 g | Weights of Experimental Mice (Mean ± SD) ([1]; Day 1): 19.9 ± 0.4 g | Weights of Experimental Mice (Mean ± SD) ([1]; Day 2): 19.7 ± 0.4 g | Weights of Experimental Mice (Mean ± SD) ([1]; Day 3): 19.9 ± 0.6 g | Weights of Experimental Mice (Mean ± SD) ([1]; Day 4): 19.7 ± 0.5 g | Weights of Experimental Mice (Mean ± SD) ([1]; Day 5): 19.6 ± 0.5 g | Weights of Experimental Mice (Mean ± SD) ([1]; Day 6): 19.3 ± 0.7 g | Weights of Experimental Mice (Mean ± SD) ([1]; Day 7): 19.0 ± 1.0 g | Weights of Experimental Mice (Mean ± SD) ([1]; Day 8): 18.9 ± 1.2 g | Weights of Experimental Mice (Mean ± SD) ([1]; Day 9): 18.9 ± 1.1 g

COCCCN1C(=O)CCC(N2C(=O)c3ccc(N)cc3C2=O)C1=O (centres unmarked) [Example 18, 5-amino-2-(1-(3-methoxypropyl)-2,6-dioxopiperidin-3-yl)isoindolin-1,3-dione]
Daily Body Weight of Tested Female Mice (Mean ± SD) (ICR mice; [2]): 18.4 ± 0.7 g | Daily Body Weight of Tested Male Mice (Mean ± SD) (ICR mice; [2]): 18.2 ± 0.4 g | Daily Body Weight of Tested Female Mice (Mean ± SD) (ICR mice; [3]): 22.5 ± 0.8 g | Daily Body Weight of Tested Male Mice (Mean ± SD) (ICR mice; [3]): 23.0 ± 0.7 g | Daily Body Weight of Tested Female Mice (Mean ± SD) (ICR mice; [4]): 23.8 ± 1.1 g | Daily Body Weight of Tested Male Mice (Mean ± SD) (ICR mice; [4]): 24.1 ± 0.4 g | Daily Body Weight of Tested Female Mice (Mean ± SD) (ICR mice; [5]): 24.8 ± 1.5 g | Daily Body Weight of Tested Male Mice (Mean ± SD) (ICR mice; [5]): 25.6 ± 0.8 g | Daily Body Weight of Tested Female Mice (Mean ± SD) (ICR mice; [6]): 24.8 ± 0.6 g | Daily Body Weight of Tested Male Mice (Mean ± SD) (ICR mice; [6]): 28.1 ± 1.1 g | Daily Body Weight of Tested Female Mice (Mean ± SD) (ICR mice; [7]): 25.4 ± 0.7 g | Daily Body Weight of Tested Male Mice (Mean ± SD) (ICR mice; [7]): 29.0 ± 1.4 g | Daily Body Weight of Tested Female Mice (Mean ± SD) (ICR mice; [8]): 25.2 ± 1.1 g | Daily Body Weight of Tested Male Mice (Mean ± SD) (ICR mice; [8]): 29.0 ± 1.0 g
